Results taken from ChEMBL document CHEMBL1158313, “Isolation of New Steroidal Hemiacetals from the Gorgonian Euplexaura anastomosans” (J Nat Prod, 1996).
Active and inactive are the calls of the source. No cut-off for these calls is given here.

Tests used:
[1] = test system: Artemia; test: Toxicity against brine shrimp larvae; assay type: organism-based; settings: in vivo
[2] = test system: P388; test: Cytotoxicity against mouse P388 cells; assay type: functional, cell-based

Structure (SMILES) | Activity [1] | Activity [2]
CC(C)[C@H]1CC[C@H]([C@@]2(O)CC[C@H]3[C@@H]4CCC5=CC(=O)C=C[C@]5(C)[C@H]4CC[C@@]32C)[C@H](O)O1 [ANASTOMOSACETAL A] | Non-toxic | inactive
CC(C)[C@H]1CC[C@H]([C@@]2(O)CC[C@H]3[C@@H]4CC[C@H]5CC(=O)CC[C@]5(C)[C@H]4CC[C@@]32C)[C@H](O)O1 [ANASTOMOSACETAL D] | Non-toxic | inactive
CC(C)[C@H]1CC[C@H]([C@@]2(O)CC[C@H]3[C@@H]4CC[C@H]5CC(=O)C=C[C@]5(C)[C@H]4CC[C@@]32C)[C@H](O)O1 [ANASTOMOSACETAL B] | Non-toxic | inactive
CC(C)[C@H]1CC[C@H]([C@@]2(O)CC[C@H]3[C@@H]4CCC5=CC(=O)CC[C@]5(C)[C@H]4CC[C@@]32C)[C@H](O)O1 [ANASTOMOSACETAL C] | Non-toxic | inactive
